Experimental findings from US20260250262A1, “NEW COMPOUND AND PHARMACEUTICAL COMPOSITION COMPRISING SAME” (SAMJIN PHARMACEUTICAL CO., LTD., priority 2023, published 2026) are described below.

Assay [1] concerns the target T1, Recombinant NAMPT protein (Homo sapiens, UniProt P43490).
T1 construct: purchased BPS bioscience #7176-1
Briefly: NAMPT enzyme inhibition assay (BPS Bioscience NAMPT Inhibitor Screening Assay Kit). It counts as biochemical. Conditions: 30 min pre-incubation, 2 h at 30° C., fluorescence. As to the method:
Recombinant NAMPT protein was added to each well of a black 96-well plate, and dilution buffer was added to a blank well instead of NAMPT protein. A 5× concentrated compound solution was added and pre-incubated at room temperature (approximately 22° C.) for 30 minutes before the start of the reaction so that the compound and protein might bind before the enzyme reaction. At this time, the concentration of NAMPT protein was adjusted and used according to the enzyme activity of each protein lot within the final concentration range of 4-10 ng/μl, and the test compound was serially diluted at a ratio of 1:3 from 1000 nM to 1 nM, and experiments were conducted with n=2 for about seven concentrations. […] The NAMPT enzyme activity (%) was calculated by subtracting the measurement value of the blank well without NAMPT protein from the measurement value of all wells, and then taking the measurement value of the control well without the compound as 100%.

For assay [2], the system named is HCT-116 cell lines. Briefly: Cellular NAD measurement assay (NAD/NADH-Glo). Type of assay: cell-based. The note with it: Homo sapiens; HCT-116, 24 hours treatment, intracellular NAD+/NADH level. As to the method: With regard to HCT-116 cell lines, the decrease in intracellular NAD+ and NADH levels due to the inhibition of NAMPT enzyme activity by compounds was evaluated using NAD/NADH-Glo™ Assay (Promega, G9072) from Promega. The cells were incubated using DMEM (Gibco, 11995-065) medium containing 10% FBS. The HCT-116 cells were incubated for 24 hours after being distributed at a density of 2,500 cells per well in a 96-well plate, and were treated with the drugs using serum-free DMEM. First, the compounds were dissolved in 100% dimethyl sulfoxide (DMSO), and then diluted in the culture medium so that the final concentration of DMSO might reach 0.5%, and treated with the drugs. The final concentration range of the compounds was 0.1 nM to 100 nM. After that, they were further incubated for 24 hours under conditions of 37° C. and CO2 5%. To conduct the NAD/NADH-Glo™ Assay, the culture medium of drug-treated cells was removed, 50 μL of DPBS was treated per well, and left at room temperature for five minutes. The required amount of NAD/NADH-Glo™ Detection Reagent (Reconstituted Luciferin Detection Reagent 1 mL, Reductase 5 μL, Reductase Substrate 5 μL, NAD Cycling Enzyme 5 μL, NAD Cycling Substrate 25 μL) was prepared according to the manufacturer's manual and treated in an amount of 50 μL per well. After incubating for two minutes at 400 rpm in a plate shaker for cell lysis, the cells were incubated for 30 minutes at room temperature, and luminescence was measured. NAD+/NADH levels were calculated by subtracting the measurement value of the blank well without cells from the measurement value of all wells and taking the 0.5% DMSO-treated control as 100%.

Assay [3] has as its system HCT-116 (colorectal cancer). Briefly: Tumor cytotoxicity assay (MTT), HCT-116. Type of assay: cell-based. The note with it: Homo sapiens, HCT-116, 72 hours. The method, then:
(§1) First, the compounds were prepared in 100% dimethyl sulfoxide (DMSO) at concentrations of 0.02 μM to 200 μM, and then diluted in the culture medium so that the final concentration of DMSO might reach 0.5%, and treated with the drugs. The final concentration range of the compounds was 0.1 nM to 1000 nM. After that, they were further incubated for 72 hours under conditions of 37° C. and CO2 5%. […] The cell viability (%) was relatively determined by subtracting the reference 650 nm optical density (O.D.) from the 570 nm O.D., and the 0.5% DMSO-treated control was set as 100% as the standard.

The subject of assay [4] is NCI-N87 (gastric cancer). Briefly: Tumor cytotoxicity assay (MTT), NCI-N87. Type of assay: cell-based. Conditions: Homo sapiens, NCI-N87, 72 hours. The method, then: as §1

T1 sequence (P43490 whole entry): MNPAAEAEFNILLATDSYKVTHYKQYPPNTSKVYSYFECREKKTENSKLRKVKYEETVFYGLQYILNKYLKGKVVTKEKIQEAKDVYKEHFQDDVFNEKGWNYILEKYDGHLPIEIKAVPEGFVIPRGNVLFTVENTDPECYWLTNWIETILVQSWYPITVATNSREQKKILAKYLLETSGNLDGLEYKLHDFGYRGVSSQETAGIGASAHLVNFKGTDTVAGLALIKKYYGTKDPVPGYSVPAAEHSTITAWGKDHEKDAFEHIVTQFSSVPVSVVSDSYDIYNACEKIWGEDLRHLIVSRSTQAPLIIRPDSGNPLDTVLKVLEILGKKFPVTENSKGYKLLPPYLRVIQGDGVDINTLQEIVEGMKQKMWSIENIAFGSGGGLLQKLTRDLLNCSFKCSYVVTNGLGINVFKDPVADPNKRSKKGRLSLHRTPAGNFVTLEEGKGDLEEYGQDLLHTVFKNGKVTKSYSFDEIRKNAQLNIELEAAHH

For orientation: IC50 means the concentration needed to halve the response being measured. The term CC50 denotes the concentration at which the toxic effect on the cells reaches its halfway point. Read a low CC50 as greater toxicity to the cells. For `O=C(NCCc1cccnc1)Nc1ccc(-c2ccncc2)c(C#Cc2ccc(F)cc2)c1` [Compound 1, 1-(3-((4-fluorophenyl)ethynyl)-4-(pyridin-4-yl)phenyl)-3-(2-(pyridin-3-yl)ethyl)urea], the IC50 in assay [1] is < 500 nM; in assay [2], 10 to 1000 nM. Further, the CC50 in assay [3] and in assay [4] was 30 to 100 nM in each case. For `O=C(NCCc1cccnc1)Nc1ccc(-c2ccc(C(=O)N3CCC(F)(F)CC3)cc2)c(C#Cc2ccc(F)cc2)c1` [Compound 2, 1-(4′-(4,4-difluoropiperidine-1-carbonyl)-2-((4-fluorophenyl)ethynyl)-[1,1′-biphenyl]-4-yl)-3-(2-(pyridin-3-yl)ethyl)urea], in assay [1], the IC50 was < 500 nM. Take `O=C(NCCn1ccnc1)Nc1ccc(-c2ccncc2)c(C#Cc2ccc(F)cc2)c1` [Compound 3, 1-(2-(1H-imidazol-1-yl)ethyl)-3-(3-((4-fluorophenyl)ethynyl)-4-(pyridin-4-yl)phenyl)urea]: in assay [1], the half-maximal inhibitory concentration (IC50) lay within 500 to 1000 nM. Same read-out and setting: the value for `O=C(NCCc1cccc(O)c1)Nc1ccc(-c2ccncc2)c(C#Cc2ccc(F)cc2)c1` [Compound 5, 1-(3-((4-fluorophenyl)ethynyl)-4-(pyridin-4-yl)phenyl)-3-(3-hydroxyphenethyl)urea] was > 1000 nM. Consider `O=C(NCc1cc2cnccc2[nH]1)Nc1ccc(-c2ccncc2)c(C#Cc2ccc(F)cc2)c1` [Compound 6, 1-((1H-pyrrolo[3,2-c]pyridin-2-yl)methyl)-3-(3-((4-fluorophenyl)ethynyl)-4-(pyridin-4-yl)phenyl)urea], for which the IC50 in assay [1] was < 500 nM. The compound also returned a CC50 in assay [3] of 30 to 100 nM. `O=C(NCCc1cccnc1)Nc1ccc(-c2ccncc2)c(C#Cc2ccc(C(=O)NCCN3CCCCC3)cc2)c1` [Compound 7, N-(2-(piperidin-1-yl)ethyl)-4-((5-(3-(2-(pyridin-3-yl)ethyl)ureido)-2-(pyridin-4-yl)phenyl)ethynyl)benzamide]: in assay [1], the IC50 was < 500 nM. For the same compound, the CC50 in assay [3] was < 30 nM. For `O=C(NCCn1ccnc1[N+](=O)[O-])Nc1ccc(-c2ccncc2)c(C#Cc2ccc(F)cc2)c1` [Compound 8, 1-(3-((4-fluorophenyl)ethynyl)-4-(pyridin-4-yl)phenyl)-3-(2-(2-nitro-1H-imidazol-1-yl)ethyl)urea], the half-maximal inhibitory concentration (IC50) in assay [1] was > 1000 nM. On to `O=C(NCCc1cccnc1)Nc1ccc(-c2cccc(N3CCOCC3)c2)c(C#Cc2ccc(F)cc2)c1` [Compound 9, 1-(2-((4-fluorophenyl)ethynyl)-3′-morpholino-[1,1′-biphenyl]-4-yl)-3-(2-(pyridin-3-yl)ethyl)urea], for which the IC50 in assay [1] was 500 to 1000 nM. The same measure, in the same setting: the value for `Nc1ccc(CCNC(=O)Nc2ccc(-c3ccncc3)c(C#Cc3ccc(F)cc3)c2)cn1` [Compound 10] was > 1000 nM; that for `O=C(NCCc1ccc2ocnc2c1)Nc1ccc(-c2ccncc2)c(C#Cc2ccc(F)cc2)c1` [Compound 11] was > 1000 nM. With `O=C(NCCc1cccnc1)Nc1ccc(-c2ccncc2)c(C#Cc2ccc(C(=O)NCCN3CCC4(CCNC4)CC3)cc2)c1` [Compound 35], the IC50 in assay [1] is < 500 nM. For the same compound, the 50% cytotoxic concentration (CC50) in assay [3] and in assay [4] was 30 to 100 nM throughout. Take `NC1CCCN(CCNC(=O)c2ccc(C#Cc3cc(NC(=O)NCCc4cccnc4)ccc3-c3ccncc3)cc2)C1` (stereo not shown) [Compound 40]: the concentration for half-maximal inhibition (IC50) in assay [1] was < 500 nM. Further, the CC50 in assay [3] and in assay [4] was 30 to 100 nM throughout. As for `NC1CCN(C(=O)c2cccc(-c3ccc(NC(=O)NCCc4cccnc4)cc3C#Cc3ccc(C(=O)NCCN4CCCCC4)cc3)c2)C1` (stereo not shown) [Compound 43], the half-maximal inhibitory concentration (IC50) in assay [1] is > 1000 nM. The same measure, in the same setting: the value for `Nc1cccc(C(=O)N2CCN(c3ccc(NC(=O)NCCc4cccnc4)cc3C#Cc3ccc(F)cc3)CC2)c1` [Compound 52] was < 500 nM; that for `O=C(NCCc1cccnc1)Nc1ccc(-c2ccc3cnccc3c2)c(C#Cc2ccc(F)cc2)c1` [Compound 57] was < 500 nM. In the case of `NC1CCN(C(=O)c2ccc(C#Cc3cc(NC(=O)NCCc4cccnc4)ccc3-c3ccncc3)cc2)CC1` [Compound 65, 1-(3-((4-(4-aminopiperidin-1-carbonyl)phenyl)ethynyl)-4-(pyridin-4-yl)phenyl)-3-(2-(pyridin-3-yl)ethyl)urea], the IC50 in assay [1] was < 500 nM. This compound registered a CC50 in assay [3] of 30 to 100 nM.

For `O=C(NCCc1cccnc1)Nc1ccc(-c2ccncc2)c(C#Cc2ccc(C(=O)NC3CCNCC3)cc2)c1` [Compound 66, N-(piperidin-4-yl)-4-((5-(3-(2-(pyridin-3-yl)ethyl)ureido)-2-(pyridin-4-yl)phenyl)ethynyl)benzamide], the half-maximal inhibitory concentration (IC50) in assay [1] is < 500 nM. In addition, the CC50 was 30 to 100 nM in assay [3] and < 30 nM in assay [4]. Consider `Cn1ccc(CS(=O)(=O)c2ccc(NC(=O)NCCc3cccnc3)cc2C#Cc2ccc(F)cc2)n1` [Compound 69], for which the IC50 in assay [1] was < 500 nM. For the compound `O=C(NCCc1cccnc1)Nc1ccc(CC(=O)N2CCCCC2)c(C#Cc2ccc(F)cc2)c1` [Compound 74], the concentration for half-maximal inhibition (IC50) in assay [1] was < 500 nM. Also, in assay [4], the CC50 is < 30 nM. As to `CC(C(=O)NC1CCCCC1)c1ccc(NC(=O)NCCc2cccnc2)cc1C#Cc1ccc(C(=O)NCCN2CCCCC2)cc1` (stereo not shown) [Compound 89], the 50% inhibitory concentration (IC50) in assay [1] was < 500 nM. Also, in assay [3], the CC50 is 30 to 100 nM.

Consider `O=C(NCCc1cccnc1)Nc1ccc(C(=O)Nc2ccccc2)c(C#Cc2ccc(C(=O)NCCN3CCCCC3)cc2)c1` [Compound 95], for which, in assay [1], the IC50 is < 500 nM.

Turning to `O=C(NCCCc1cn[nH]c1)Nc1ccc(-c2ccncc2)c(C#Cc2ccc(F)cc2)c1` [Compound 110], in assay [1], the IC50 is < 500 nM. For `O=C(NCCc1cccnc1)Nc1ccc(N2CCNCC2)c(C#Cc2ccc(F)cc2)c1` [Compound 118], the IC50 in assay [1] was > 1000 nM. Consider `CCC(=O)Nc1ccc(NC(=O)NCCc2cccnc2)cc1C#Cc1ccc(F)cc1` [Compound 122], for which, in assay [1], the IC50 was < 500 nM. On the same count and under the same terms, the value for `O=C(NCCc1cccnc1)Nc1ccc(NC(=O)c2ccc(F)cc2)c(C#Cc2ccc(F)cc2)c1` [Compound 124] was < 500 nM. On to `CC(=O)Nc1ccc(C#Cc2cc(NC(=O)NCCc3cccnc3)ccc2-c2ccncc2)cc1` [Compound 126, N-(4-((5-(3-(2-(pyridin-3-yl)ethyl)ureido)-2-(pyridin-4-yl)phenyl)ethynyl)phenyl)acetamide], for which the IC50 in assay [1] was < 500 nM. For the same compound, in assay [4], the CC50 was < 30 nM. As to `Nc1cccc(C#Cc2cc(NC(=O)NCCc3cccnc3)ccc2-c2ccncc2)c1` [Compound 139], the IC50 in assay [1] is < 500 nM. As to `Nc1cccc(C(=O)Nc2ccc(NC(=O)NCCc3cccnc3)cc2C#Cc2ccc(F)cc2)c1` [Compound 177], the IC50 in assay [1] was < 500 nM.

Turning to `O=C(NCCc1ccc([N+](=O)[O-])nc1)Nc1ccc(-c2ccncc2)c(C#Cc2ccc(F)cc2)c1` [Compound 182], the IC50 in assay [1] was > 1000 nM. For the compound `Cn1ccc(CS(=O)(=O)c2ccc(NC(=O)NCc3ccn4ccnc4c3)cc2C#Cc2ccc(F)cc2)n1` [Compound 183, 1-(3-((4-fluorophenyl)ethynyl)-4-(((1-methyl-1H-pyrazol-3-yl)methyl)sulfonyl)phenyl)-3-(imidazo[1,2-a]pyridin-7-ylmethyl)urea], the values for the IC50 in assay [1] and in assay [2] were < 500 nM and ≤ 10 nM, respectively. In addition, the CC50 in assay [3] was < 30 nM. For `NC1CCCN(c2ccc(NC(=O)NCCc3cccnc3)cc2C#Cc2ccc(C(=O)NCCN3CCCCC3)cc2)C1` (stereo not shown) [Compound 184], the IC50 in assay [1] is 500 to 1000 nM.

As for `O=C(NCc1ccn2ccnc2c1)Nc1ccc(-c2ccc(N3CCNCC3)cc2)c(C#Cc2ccc(F)cc2)c1` [Compound 185], the IC50 in assay [1] lay within 500 to 1000 nM. In the case of `Cc1nc2cc(-c3ccc(NC(=O)NCc4ccn5ccnc5c4)cc3C#Cc3ccc(F)cc3)ccc2c(=O)n1CCN` [Compound 188], in assay [1], the IC50 is < 500 nM. For the same compound, the cytotoxic concentration (CC50) in assay [3] and in assay [4] was < 30 nM throughout.
